17 molecules from ChEMBL document CHEMBL1128815, “Uracil-based angiotensin II receptor antagonists” (Bioorg Med Chem Lett, 1995) can be followed below.

Each structure is given as a SMILES string.

In assay [1] the target is T1, Type-1 angiotensin II receptor (Bos taurus, UniProt P25104).
T1 sequence (P25104 whole entry): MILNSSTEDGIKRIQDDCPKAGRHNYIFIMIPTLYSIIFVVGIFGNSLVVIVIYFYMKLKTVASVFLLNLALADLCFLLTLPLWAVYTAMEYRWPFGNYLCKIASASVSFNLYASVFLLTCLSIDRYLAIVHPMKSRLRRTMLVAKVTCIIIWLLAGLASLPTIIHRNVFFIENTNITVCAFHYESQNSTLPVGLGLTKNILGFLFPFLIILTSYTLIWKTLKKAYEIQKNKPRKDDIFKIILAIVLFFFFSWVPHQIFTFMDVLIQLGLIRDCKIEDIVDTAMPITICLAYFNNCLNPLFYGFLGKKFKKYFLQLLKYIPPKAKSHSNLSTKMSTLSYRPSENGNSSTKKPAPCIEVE
The assay is described as follows: Tested for binding affinity against angiotensin II receptor in bovine adrenal cortex. It counts as tissue-based.

Assay [2] concerns the target T2, Type-1 angiotensin II receptor B (Rattus norvegicus, UniProt P29089).
T2 sequence (P29089 whole entry): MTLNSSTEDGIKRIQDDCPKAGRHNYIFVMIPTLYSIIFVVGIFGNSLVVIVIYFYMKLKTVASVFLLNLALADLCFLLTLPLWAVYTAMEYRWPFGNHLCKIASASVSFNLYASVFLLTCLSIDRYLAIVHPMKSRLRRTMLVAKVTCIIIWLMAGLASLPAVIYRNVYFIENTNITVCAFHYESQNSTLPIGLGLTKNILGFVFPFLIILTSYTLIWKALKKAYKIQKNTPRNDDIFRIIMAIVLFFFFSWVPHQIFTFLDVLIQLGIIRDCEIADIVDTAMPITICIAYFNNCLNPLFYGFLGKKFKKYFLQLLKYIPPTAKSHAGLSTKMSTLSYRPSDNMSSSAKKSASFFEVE
As to the kind of experiment: Tested for binding affinity against angiotensin II receptor in rat adrenal cortex. It counts as tissue-based.

The IC50 is the concentration that inhibits the measured activity by half. A higher IC50 goes with lower potency. Regarding `CCCc1cc(=O)n(Cc2ccccc2)c(=O)n1Cc1ccc(-c2ccccc2-c2nn[nH]n2)cc1`, the IC50 in assay [1] turned out to be 25 nM. In the case of `CCCCc1cc(=O)n(C)c(=O)n1Cc1ccc(-c2ccccc2-c2nn[nH]n2)cc1`, the IC50 in assay [2] was 4.5 nM; in assay [1], 44 nM. With `CCCc1cc(=O)n(CCNC(=O)NC2CCCCC2)c(=O)n1Cc1ccc(-c2ccccc2-c2nnn[nH]2)cc1`, the IC50 turned out to be 1.4 nM in assay [2] and 23 nM in assay [1]. As for `CCCCc1cc(=O)n(Cc2ccccc2C(=O)OC)c(=O)n1Cc1ccc(-c2ccccc2-c2nnn[nH]2)cc1`, the results for the IC50 in assay [2] and in assay [1] were 2.4 nM and 27 nM, respectively.

As to `CCCc1cc(=O)n(CC(=O)N(C)C)c(=O)n1Cc1ccc(-c2ccccc2-c2nn[nH]n2)cc1`, the IC50 in assay [2] is 0.65 nM; in assay [1], 9.3 nM.

For the molecule `CCCc1cc(=O)n(C)c(=O)n1Cc1ccc(-c2ccccc2-c2nn[nH]n2)cc1`, the IC50 in assay [2] was 17 nM; in assay [1] it was 55 nM. The matching figures for `CCCc1cc(=O)n(Cc2ccccc2C(=O)OC)c(=O)n1Cc1ccc(-c2ccccc2-c2nnn[nH]2)cc1`: 2.3 nM and 20 nM. Molecule `CCCCc1nc(Cl)c(CO)n1Cc1ccc(-c2ccccc2-c2nn[nH]n2)cc1` [LOSARTAN] displayed an IC50 in assay [1] of 160 nM. The same measure, in the same setting: to `CCCc1c(C)c(=O)n(C)c(=O)n1Cc1ccc(-c2ccccc2-c2nnn[nH]2)cc1` belongs 6600 nM; to `CCc1cc(=O)n(C)c(=O)n1Cc1ccc(-c2ccccc2-c2nnn[nH]2)cc1`, 1000 nM; to `CCCCn1c(=O)cc(CCC)n(Cc2ccc(-c3ccccc3-c3nn[nH]n3)cc2)c1=O`, 16 nM.

`CCCc1cc(=O)[nH]c(=O)n1Cc1ccc(-c2ccccc2-c2nn[nH]n2)cc1`: the IC50 is 4.3 nM in assay [2] and 100 nM in assay [1]. On the same counts, the results for `CCCc1cc2ncnn2c(=O)n1Cc1ccc(-c2ccccc2-c2nnn[nH]2)cc1` are 6.2 nM and 62 nM. `C=CCn1c(=O)cc(CCC)n(Cc2ccc(-c3ccccc3-c3nnn[nH]3)cc2)c1=O`: the IC50 is 3.3 nM in assay [2] and 34 nM in assay [1]. On to `CCCCc1cc(=O)n2nc(-c3ccccc3)nc2n1Cc1ccc(-c2ccccc2-c2nn[nH]n2)cc1`, for which the IC50 in assay [2] worked out at 83 nM; in assay [1], 520 nM.

As for `Cn1c(=O)cc(C2CC2)n(Cc2ccc(-c3ccccc3-c3nn[nH]n3)cc2)c1=O`, the IC50 in assay [1] came out at 2400 nM. On to `CCCc1cc(=O)n(CCNC(C)=O)c(=O)n1Cc1ccc(-c2ccccc2-c2nnn[nH]2)cc1`, for which the IC50 in assay [2] was 3.4 nM; in assay [1] it was 40 nM.
